From US8299237B2, “Nucleic acid sequences comprising NF-κB binding site within O(6)-methylguanine-DNA-methyltransferase (MGMT) promoter region and uses thereof for the treatment of cancer and immune-related disorders” (Hadasit Medical Research Services & Development Ltd., priority 2007, dated 2012)

Legend:
NF-κB/p65 = target: T1, NF-κB/p65 (Homo sapiens, UniProt Q04206); assay: Gel electrophoretic mobility shift assay (EMSA) with HeLa nuclear extracts; type: binding; settings: nuclear extracts from Hela cells exposed to TNFα (200 u/ml)
T1 construct: 10 μg of nuclear extracts with 0.3 ng of ^32P-labeled synthetic double-stranded oligodeoxynucleotides; endogenous in cells; host or cells: HeLa cells treated with TNFα (nuclear extract)
Procedure: Nuclear extracts were prepared from HeLa cells treated with 200 units/ml of TNFα for 15 min. Oligodeoxynucleotides spanning the NF-κB binding site within the MGMT promoter (also denoted by SEQ ID NO. 4 and 5), with or without a C-G mutation (also denoted by SEQ ID NO. 6 and 7) or the consensus NF-κB site from HIV LTR (SEQ ID NO. 3, also shown in FIG. 1B), were end-labeled by a fill-in reaction using the Klenow fragment of DNA polymerase (New England Biolabs, Beverly, Mass.). DNA binding reactions were performed by incubation on ice for 15 min of 10 μg of nuclear extracts with 0.3 ng of ^32P-labeled synthetic double-stranded oligodeoxynucleotides in the presence of 10 mM Hepes, pH 7.9, 10% glycerol, 50 mM KCl, 5 mM MgCl2, 5 mM dithiothreitol, 2 μg of poly (dI·dC), and 0.1% Nonidet P-40. Competitor oligonucleotides were incubated in 100-fold molar excess and preincubated in the reaction mixtures for 10 min before addition of the radiolabeled probe. For supershift experiments, 1 μl of p65 antibody (MAB16200, Chemicon International Inc., Temecula, Calif.) was added during the preincubation period.
To explore whether the NF-κB sites found within the MGMT promoter actually bind NF-κB, the inventors next performed an EMSA analysis of nuclear extracts from HeLa cells treated with TNFα and with labeled DNA fragments spanning the region containing the NF-κB motif. As shown by FIG. 1C, this process generated a nuclear binding factor specific for these regions (FIG. 1C, lanes 5 and 9), of the same size as the complex attached to the consensus HIV-κB site as also denoted by SEQ ID NO. 3 (FIG. 1C, lane 2) as indicated by the black arrows. […] Binding specificity was confirmed by competition with cold HIV-κB oligonucleotide. […] This confirmed that p65 binds to both NF-κB putative sites. The upper band in lane 9 (FIG. 1C) is not the same size as the NF-κB complex attached to the canonical HIV-κB oligonucleotide (FIG. 1C, lane 2). It was neither shifted when incubated with NF-κB/p65 antibodies (lane 10), nor abolished in the presence of unlabeled HIV-κB probe (FIG. 1C, lane 11). Based on the finding that the MGMT-κB2 binding site overlaps the Sp1 site, the inventors speculate that this complex may further contain Sp1. This speculation is also supported by its size, which is the same as that of the complex attached to the Sp1 oligonucleotide (FIG. 1C, lane 1).

[1] = system: MGMT-kB1-Luc reporter construct induced by NF-κB/p65; assay: Luciferase reporter assay, MGMT-kB1-Luc co-transfected with NF-κB/p65; type: cell-based, human
Procedure: Transient transfections were performed in 6-well plates, using the FuGene6 transfection reagent (Roche Diagnostics GmbH, Mannheim, Germany), according to the manufacturer's instructions. U87MG, T98G, and A172 cells were transfected with pNF-κB-Luc reporter Vector (Clontech, Palo Alto, Calif.), while RG2 and U87MG were transfected with MGMT-Luc [construct p-954/+24 mL [Biswas T. et al. Oncogene 18:525-32 (1999)] kindly provided by Sankar Mitra] (1 μg/well). CMVβ-galactosidase expression vector (CMVβgal-Clonthech) was included (0.1 μg/well) in each transfection to normalize transfection efficiency. HEK293 cells were transfected with CMVβgal alone or along with one or more of the following plasmids: CMVp65, CMVΔNIκB, CMVp50, CMVcJun. CMVp65 and CMVΔNIκB plasmids were kindly provided by Prof. Yinon. Ben-Neriah (The Hebrew University, Jerusalem, Israel), CMVp50 and CMVcJun were kindly provided by Dr. Danielle Melloul (Hadassah Hebrew University Medical Center, Jerusalem, Israel).
At 24 hrs following transfection, the cells were lysed for 15 min on ice with 200 μl of luciferase lysis buffer (Promega, Madison, Wis.). Luciferase assays were carried out using a Promega assay kit and a luminometer (EG&G Berthold, Bad Wildbad, Germany). The activity was normalized to β-galactosidase activity (Promega) and plotted as the mean±s.d. of triplicates from a representative experiment.
For the cloning of the MGMT-luc constructs the reporter vector p-TA-Luc (Clontech, Palo Alto, USA) was used. The plasmid contains TATA box motif upstream to a luciferase reporter gene. A double stranded DNA corresponding to four repeats of each sequence as indicated by FIG. 8A (also denoted by SEQ ID NO. 44, 45, 46 and 47), was synthesis by syntezza LTD and ligated upstream to the TATA box.
To test the activity of these sites, several luciferase reporter genes bearing four copies of either intact or mutant sequence, of each of the two NF-κB sites (NF-κB1 and NF-κB2), were constructed as indicated in Experimental procedures. […] An inhibition of approximately 50% was observed using 100 nM ODN. Negative control using the CMVΔNIκB (ΔN)-Luc construct as well as positive control using the canonical HIV-κB-Luc reporter construct, confirmed validity of the data.
Induction of over expression of NF-κB in HEK 293T cells by transfection of a CMV-NF-κB/p65 generated a 50-fold elevation in luciferase expression driven by the Co-transfected reporter construct MGMT-kB1-Luc. […] Inhibition of approximately 90% was induced by 150 nM LMODN. […] No inhibition was detected when a mutant LMODN was introduced into the cells, indicating the specificity of MGMT-kB1-LMODN (of SEQ ID NO. 40 and 41). […] 3 (HIV-κB-Luc construct).

T98MG gliomas cell line = type: cell-based, human; settings: 2.5 mM TMZ without LMODN
Procedure: T98MG glioma cell line cells were treated with increasing doses of the decoy ODN's of the invention. Double stranded ODNs (30mers), corresponding to MGMT-κB1 binding site (as also denoted by SEQ. ID. NO. 1), and control ODNs were purchased from IDT. Each strand of ODN was thirty-mers and contained six LNA nucleotides. The following ODNs were used: MGMT-kB1forward: 5′---+T+AATGGGG+ACTTTAC GGG+[…]+A+T---3′ (as also denoted by SEQ. ID. NO. 40) with or without the 5′ end labeled with carboxyfluorescein-5-succimidyl ester (FAM). The MGMT-kB1 reverse ODN: 5′---+A+TTCTGTA+[…]+[…]+T+A---3′ as also denoted by SEQ ID NO. 41). Control forward: 5′---+T+AG TGT CG+A CTT CAC TCT+ACT TGA CAG A+A+T---3′ (as also denoted by SEQ ID NO. 42), control reverse: 5′---+A+TT CTG TC+A AGT AGA GTG+AAG TCG ACA C+T+A---3′ as also denoted by SEQ ID NO. 43). It should be noted that (+designated as nucleotide containing an LNA modification).
The viability of the cells was tested 24-48 hrs later by CellTiter-Blue assay (Promega®). The assay was carried out according to the supplier's instructions. Briefly, the assay is based on the ability of living cells to convert a redox dye (resazurin) into a fluorescent end product (resorufin). Cell viability estimation is done by measuring the fluorescent intensity of resorufin (ex. 560 nm, em. 590 nm) using a fluorescent microplate reader.
The inventors next tested the potential of the decoy LMODN molecules of the invention to sensitize tumor cells to alkylating agents and thereby improve their efficacy as anti-cancerous treatment. Therefore, several human cancer cell lines were treated with alkylating agents with increasing doses of MGMT-kB1-ODN followed by cell viability tests. First, the sensitivity of each cell line to several alkylating agents, mainly temozolomide (TMZ) and BCNU was calibrated. At 24 hrs following sowing, cells were exposed for two hours to increasing concentrations of the alkylating agent and viability of the cells was tested 24-48 hrs later by CellTiter-Blue assay (Promega®). To test the potential of MGMT-kB1-LMODN to sensitize tumor cells to alkylating agents in-vitro, increasing doses of LMODNs MGMT-kB1 forward and reverse as denoted by SEQ ID NO. 40 and 41, respectively), with or without the 5′ end labeled with carboxyfluorescein-5-succimidyl ester (FAM), as well as the control LMODNs (as denoted by SEQ ID NO. 42 and 43), were liposomally introduced (Lipofectamine 2000, Invitrogen) to various tumor cancer cells. Twenty four hours later, cells were treated with the different doses of alkylating agents as calibrated before.
FIG. 9 represents an example of T98MG gliomas cell line sensitized to alkylating agents in response to treatment with the LMODN's of the invention. […]

T1 sequence (Q04206 whole entry): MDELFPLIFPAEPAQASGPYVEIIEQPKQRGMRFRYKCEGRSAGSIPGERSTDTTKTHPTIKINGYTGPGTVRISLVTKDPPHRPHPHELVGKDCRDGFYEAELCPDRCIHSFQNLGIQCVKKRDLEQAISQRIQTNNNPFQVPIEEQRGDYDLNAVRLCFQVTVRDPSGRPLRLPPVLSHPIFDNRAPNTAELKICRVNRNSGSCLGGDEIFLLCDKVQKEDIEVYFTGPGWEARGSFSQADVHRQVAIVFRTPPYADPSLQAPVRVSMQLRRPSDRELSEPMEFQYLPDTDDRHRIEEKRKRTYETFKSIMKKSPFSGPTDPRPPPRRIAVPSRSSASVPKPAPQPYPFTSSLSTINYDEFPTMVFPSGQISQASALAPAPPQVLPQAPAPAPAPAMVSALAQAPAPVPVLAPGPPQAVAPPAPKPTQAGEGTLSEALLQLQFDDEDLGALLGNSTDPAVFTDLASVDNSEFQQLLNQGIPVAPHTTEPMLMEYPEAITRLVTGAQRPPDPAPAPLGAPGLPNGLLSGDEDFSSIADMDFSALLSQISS

Compound	binding of NF-κB in nuclear extract to 32P-labeled probe (in words) (NF-κB/p65)	further results
MGMT-κB-1: EMSA oligodeoxynucleotide probe spanning the NF-κB binding site MGMT-κB1 within the MGMT promoter (DNA TGATGGCTTCTGTAAAGTCCCCATCTCCAAATAAGGTCAC; DNA, backbone not given here; further chemistry not fully specified; listed as Homo sapiens)	formation of complexes of a similar size	–
MGMT-κB2: EMSA oligodeoxynucleotide probe spanning the NF-κB binding site MGMT-κB2 within the MGMT promoter (DNA GGCGGGAACACCCCGCCCCGCCCG; DNA, backbone not given here; further chemistry not fully specified; listed as Homo sapiens)	formation of complexes of a similar size	–
HIV-κB: consensus NF-κB site from HIV LTR, control probe (DNA GGCTTCAGAGGGGACTTTCCGAGA; labeled probe, label not given here, further chemistry not given here; listed as Homo sapiens)	formation of complexes of a similar size	–
SEQ ID NO. 36 and 37: double stranded LNA modified ODN decoy of MGMT-kB1 site; forward SEQ ID NO. 36, reverse SEQ ID NO. 37 (sense TAAGAGGGACTTTACGGGACTTTACTACAT; antisense ATGTAGTAAGTCCCGTAAAGTCCCTCTTA; LNA modifications, chemistry not fully specified; listed as Homo sapiens) [double stranded LNA modified ODN decoy of MGMT-kB1 site; 37]	–	inhibition of luciferase activity ([1]; 100 nM ODN, HEK293T, MGMT-κB1 reporter construct + NF-κB/p65 (FIG. 7)): approximately 50%; effect on luciferase activity driven by MGMT-kB1 reporter (in words) ([1]; HEK293T co-transfected with MGMT-kB1 reporter and NF-κB/p65): decreased the luciferase activity in a dose-dependent manner
MGMT-κB2 Mut: MGMT-κB2 oligonucleotide with mutated site (C-to-G substitution) (DNA GGCGGGAACACGGCGCCCCGCCCG; DNA, backbone not given here; further chemistry not fully specified; listed as Homo sapiens)	Specific binding was not observed	–
Cn1nnc2c(C(N)=O)ncn2c1=O [TMZ, temozolomide]	–	live cells (T98MG gliomas cell line): 60%
MGMT-κB1 Mut: MGMT-κB1 oligonucleotide with mutated site (C-to-G substitution) (DNA TGATGGCTTCTGTAAAGTCGGCATCTCCAAATAAGGTCAC; DNA, backbone not given here; further chemistry not fully specified; listed as Homo sapiens)	Specific binding was not observed	–
